No end group written: not given here.
How the values were obtained:
[1] = tested on: hsKir6.2+maSUR1 KATP channel; assay: Whole-cell patch clamp of KATP channel currents in transfected FreeStyle 293-F cells; type: cell-based, Homo sapiens (Kir6.2) / Mesocricetus auratus (SUR1); settings: 1 μM toxin; whole-cell patch clamp at −40 mV; 5 mM BaCl2 baseline; result in words (Fig. 1A, 3H, 5B)
Method: KATP constructs were transfected into FreeStyle 293-F cells using polyethylenimine at a cell density of 1 × 10^6 cells/ml. Cells were cultured in FreeStyle 293 Expression Medium with 1% fetal bovine serum for 24 h before recording. Currents were recorded using whole-cell mode at −40 mV in the pipette and an Axon-patch 200B amplifier (Axon Instruments, USA). Patch electrodes were pulled by a horizontal microelectrode puller (P-1000, Sutter Instrument Co, USA) to tip resistance of 2.0 to 3.0 MΩ. Pipette solution containing 107 mM KCl, 1.2 mM MgCl2, 1 mM CaCl2, 10 mM EGTA, 5 mM Hepes (pH 7.2, KOH), and bath solution containing 40 mM KCl, 100 mM NaCl, 2.6 mM CaCl2, 1.2 mM MgCl2, and 5 mM Hepes (pH 7.4, NaOH) were used for measuring inhibitory effect of wild-type and mutant toxins. Application of 5 mM BaCl2 in bath solution was used to block the KATP currents to determine the baseline. Data analysis was carried out using GraphPad Prism 8.0 or 10.4.0.

cryo-EM structure = target: the molecule itself; assay: cryo-EM structure

“Sm3a: toxin from the centipede Scolopendra morsitans (P0DQC2.1), recombinantly expressed; novel KATP channel blocker (AKKEIPYKRQKFPKKSQCIEACANALTNGDKSKITDVKSRFYKCICYYNP; also: two disulfide bonds, pairing not given here for this toxin)” was tested, and the “Inhibition of whole-cell KATP current” value [1] was “strongly blocks currents”.

B1: human Kir6.2 (Q52E) subunit of the cleaved KATP fusion protein (natural protein)
chain: GPLSRKGIIPEEYVLTRLAEDPAKPRYRARQRRARFVSKKGNCNVAHKNIREEGRFLQDVFTTLVDLKWPHTLLIFTMSFLCSWLLFAMAWWLIAFAHGDLAPSEGTAEPCVTSIHSFSSAFLFSIEVQVTIGFGGRMVTEECPLAILILIVQNIVGLMINAIMLGCIFMKTAQAHRRAETLIFSKHAVIALRHGRLCFMLRVGDLRKSMIISATIHMQVVRKTTSPEGEVVPLHQVDIPMENGVGGNSIFLVAPLIIYHVIDANSPLYDLAPSDLHHHQDLEIIVILEGVVETTGITTQARTSYLADEILWGQRFVPIVAEEDGRYSVDYSKFGNTVKVPTPLCTARQLDEDHSLLEALTLASARGPLRKRSVPMAKAKPKFSISPDSLS
notes: also called hsKir6.2; hsKir6.2 (Q52E)
With B1 the “stoichiometry N” value (cryo-EM structure) was 4.
